Measured values published in paper PMC5812785 (Nature chemical biology, 2018).

Tests used:
[1] = target: ccvTIR1 (TIR1^F79G) (Arabidopsis thaliana, UniProt Q38825+Q570C0, Q570C0:F79G); type: binding
[2] = target: TIR1 (Arabidopsis thaliana, UniProt Q38825+Q570C0); type: binding
Sequence of TIR1 (Q570C0 whole entry, other chains not shown): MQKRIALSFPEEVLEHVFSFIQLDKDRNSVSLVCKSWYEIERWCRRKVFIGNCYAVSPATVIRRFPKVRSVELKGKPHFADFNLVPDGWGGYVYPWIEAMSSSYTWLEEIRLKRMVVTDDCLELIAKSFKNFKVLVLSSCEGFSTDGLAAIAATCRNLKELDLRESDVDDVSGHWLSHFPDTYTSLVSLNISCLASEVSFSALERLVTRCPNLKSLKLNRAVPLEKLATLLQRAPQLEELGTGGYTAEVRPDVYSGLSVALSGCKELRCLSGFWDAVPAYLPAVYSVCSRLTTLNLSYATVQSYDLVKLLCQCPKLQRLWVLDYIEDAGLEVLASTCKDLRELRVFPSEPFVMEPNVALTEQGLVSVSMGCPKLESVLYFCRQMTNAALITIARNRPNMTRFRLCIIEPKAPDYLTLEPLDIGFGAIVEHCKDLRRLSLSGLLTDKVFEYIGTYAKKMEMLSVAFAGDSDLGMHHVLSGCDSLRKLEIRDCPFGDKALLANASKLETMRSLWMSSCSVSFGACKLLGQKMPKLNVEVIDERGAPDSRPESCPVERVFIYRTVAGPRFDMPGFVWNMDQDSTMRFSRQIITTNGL

Sequence of ccvTIR1 (TIR1^F79G) (Q570C0 whole entry F79G, other chains not shown): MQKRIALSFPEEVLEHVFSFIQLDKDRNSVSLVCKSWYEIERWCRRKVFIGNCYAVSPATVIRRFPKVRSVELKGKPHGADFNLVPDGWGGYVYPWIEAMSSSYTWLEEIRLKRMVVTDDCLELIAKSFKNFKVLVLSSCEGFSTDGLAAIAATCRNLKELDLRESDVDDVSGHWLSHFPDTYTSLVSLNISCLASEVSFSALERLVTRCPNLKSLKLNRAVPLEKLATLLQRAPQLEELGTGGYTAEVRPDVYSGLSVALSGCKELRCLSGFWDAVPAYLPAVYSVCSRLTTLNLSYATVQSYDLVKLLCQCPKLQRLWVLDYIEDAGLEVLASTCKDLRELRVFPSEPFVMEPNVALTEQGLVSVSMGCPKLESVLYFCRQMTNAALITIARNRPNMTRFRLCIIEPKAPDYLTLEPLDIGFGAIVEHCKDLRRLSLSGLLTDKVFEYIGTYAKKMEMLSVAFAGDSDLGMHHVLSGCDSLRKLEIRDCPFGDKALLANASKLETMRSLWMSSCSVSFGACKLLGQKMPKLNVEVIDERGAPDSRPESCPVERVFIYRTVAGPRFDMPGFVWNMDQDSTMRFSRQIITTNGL

| SMILES | EC50 [1] | EC50 [2] |
| --- | --- | --- |
| COc1cccc(-c2ccc3[nH]cc(CC(=O)O)c3c2)c1 [compound 1, 5-(3-methoxyphenyl)indole-3-acetic acid] | 3.98 ± 0.6 µM | – |
| O=C(O)Cc1c[nH]c2ccccc12 [IAA, indole-3-acetic acid] | – | 11.5 ± 1.23 µM |
